In assay [1] the target is Human α2δ-1 subunit of Cav2.2 calcium channel (Homo sapiens, UniProt P54289). Kind of assay: Human α2δ-1 subunit of Cav2.2 calcium channel assay ([3H]-gabapentin binding). To be noted: binding to the α2δ-1 subunit of voltage-gated calcium channels, expressed as Ki class; + also covers inhibition between 1% and 50%. The protocol:
Human α2δ-1 Subunit of Cav2.2 Calcium Channel Assay
Human α2δ-1 enriched membranes (2.5 μg) were incubated with 15 nM of radiolabeled [^3H]-Gabapentin in assay buffer containing Hepes-KOH 10 mM. pH 7.4. NSB (non specific binding) was measured by adding 10 μM pregabalin. The binding of the test compound was measured at either one concentration (% inhibition at 1 or 10 μM) or five different concentrations to determine affinity values (Ki). After 60 min incubation at 27° C., binding reaction was terminated by filtering through Multiscreen GF/C (Millipore) presoaked in 0.5% polyethyleneimine in Vacuum Manifold Station, followed by 3 washes with ice-cold filtration buffer containing 50 mM Tris-HCl, pH 7.4. Filter plates were dried at 60° C. for 1 h and 30 μL of scintillation cocktail were added to each well before radioactivity reading. Readings were performed in a Trilux 1450 Microbeta radioactive counter (Perkin Elmer).

Assay [2] deals with T1, Human σ1 receptor (Homo sapiens, UniProt Q99720).
T1 construct: expressed in transfected cells; host or cells: HEK-293
T1 sequence (Q99720 whole entry): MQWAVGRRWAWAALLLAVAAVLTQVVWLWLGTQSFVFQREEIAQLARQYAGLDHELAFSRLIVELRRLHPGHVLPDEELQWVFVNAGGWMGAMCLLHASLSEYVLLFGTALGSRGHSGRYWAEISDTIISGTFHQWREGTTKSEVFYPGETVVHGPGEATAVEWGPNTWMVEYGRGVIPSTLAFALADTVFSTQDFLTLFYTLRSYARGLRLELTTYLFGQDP
Kind of assay: Human σ1 receptor radioligand assay ([3H](+)-pentazocine binding). Conditions: binding to the σ1 receptor, expressed as Ki class; + also covers inhibition between 1% and 50%. As to the method: Human σ1 Receptor Radioligand Assay
Transfected HEK-293 membranes (7 μg) were incubated with 5 nM of [^3H](+)-pentazocine in assay buffer containing Tris-HCl 50 mM at pH 8. NBS (non-specific binding) was measured by adding 10 μM haloperidol. The binding of the test compound was measured at either one concentration (% inhibition at 1 or 10 μM) or five different concentrations to determine affinity values (Ki). Plates were incubated at 37° C. for 120 minutes. After the incubation period, the reaction mix was then transferred to MultiScreen HTS, FC plates (Millipore), filtered and plates were washed 3 times with ice-cold 10 mM Tris-HCL (pH7.4). Filters were dried and counted at approximately 40% efficiency in a MicroBeta scintillation counter (Perkin-Elmer) using EcoScint liquid scintillation cocktail.

Bounds are passed on as bounds.

The Ki is the dissociation constant of the complex between target and ligand, obtained from inhibition or displacement.

Human α2δ-1 subunit of Cav2.2 calcium channel, sequence (P54289 25-1103): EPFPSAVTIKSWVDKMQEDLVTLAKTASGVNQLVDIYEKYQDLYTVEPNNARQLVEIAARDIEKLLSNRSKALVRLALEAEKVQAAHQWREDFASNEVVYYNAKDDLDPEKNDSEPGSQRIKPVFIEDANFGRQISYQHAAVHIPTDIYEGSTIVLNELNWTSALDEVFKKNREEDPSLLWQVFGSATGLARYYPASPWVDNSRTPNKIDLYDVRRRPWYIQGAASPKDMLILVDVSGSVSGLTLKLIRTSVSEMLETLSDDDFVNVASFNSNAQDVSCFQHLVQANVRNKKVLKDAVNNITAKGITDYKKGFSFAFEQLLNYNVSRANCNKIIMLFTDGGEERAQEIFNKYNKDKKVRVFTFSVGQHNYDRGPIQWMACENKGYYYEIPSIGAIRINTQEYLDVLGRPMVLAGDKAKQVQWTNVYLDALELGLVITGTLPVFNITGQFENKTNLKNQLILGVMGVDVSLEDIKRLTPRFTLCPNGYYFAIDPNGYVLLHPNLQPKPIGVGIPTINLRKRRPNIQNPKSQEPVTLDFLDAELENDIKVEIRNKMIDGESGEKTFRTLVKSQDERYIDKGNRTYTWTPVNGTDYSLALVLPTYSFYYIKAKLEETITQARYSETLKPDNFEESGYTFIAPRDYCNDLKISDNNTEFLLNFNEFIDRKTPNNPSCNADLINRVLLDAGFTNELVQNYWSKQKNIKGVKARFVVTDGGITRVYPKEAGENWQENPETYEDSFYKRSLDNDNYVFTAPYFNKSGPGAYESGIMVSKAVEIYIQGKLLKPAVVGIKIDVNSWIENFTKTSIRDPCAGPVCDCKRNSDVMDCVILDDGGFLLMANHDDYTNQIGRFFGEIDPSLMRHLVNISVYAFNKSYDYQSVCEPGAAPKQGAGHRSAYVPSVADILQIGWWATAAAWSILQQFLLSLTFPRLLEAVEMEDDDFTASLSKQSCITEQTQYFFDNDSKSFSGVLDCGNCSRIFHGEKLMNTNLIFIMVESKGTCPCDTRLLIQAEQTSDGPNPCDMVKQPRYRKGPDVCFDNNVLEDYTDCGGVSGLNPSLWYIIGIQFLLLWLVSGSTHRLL

As for `CCCC(c1nc2ncc(F)cc2c(=O)n1CC1CC1)N1CCN[C@@H](C)CC1` (single isomer, unassigned) [Example 194], the Ki in assay [1] was greater than 5000 nM; in assay [2] it was greater than 1000 nM.
With `CCCC(c1nc2ccc(Br)cc2c(=O)n1CC)N1CCCN(C)CC1` (stereo not drawn) [Example 1, 6-Bromo-3-ethyl-2-(1-(4-methyl-1,4-diazepan-1-yl)butyl)quinazolin-4(3H)-one], the Ki in assay [1] and in assay [2] was less than 500 nM in each case.
As to `CCCC(c1nc2ccc(Br)cc2c(=O)n1CC)N1CCCNCC1` (stereo not drawn) [Example 2, 2-(1-(1,4-diazepan-1-yl)butyl)-6-bromo-3-ethylquinazolin-4(3H)-one], the Ki in assay [1] is less than 500 nM; in assay [2] it was greater than 1000 nM.
As for `CCCC(c1nc2cc(Br)ccc2c(=O)n1CC)N1CCCN(C)CC1` (stereo not drawn) [Example 3, 7-bromo-3-ethyl-2-(1-(4-methyl-1,4-diazepan-1-yl)butyl)quinazolin-4(3H)-one], the Ki is less than 500 nM in assay [1] and greater than 1000 nM in assay [2].
Regarding `CCCC(c1nc2cc(Br)ccc2c(=O)n1CC)N1CCCNCC1` (stereo not drawn) [Example 4, 2-(1-(1,4-diazepan-1-yl)butyl)-7-bromo-3-ethylquinazolin-4(3H)-one], the Ki in assay [1] was less than 500 nM; in assay [2], greater than 1000 nM.
Regarding `CCCC(c1nc2ccc(Br)cc2c(=O)n1CC)N1CCCN(CCc2ccccc2)CC1` (stereo not drawn) [Example 5, 6-bromo-3-ethyl-2-(1-(4-phenethyl-1,4-diazepan-1-yl)butyl)quinazolin-4(3H)-one], the results for the Ki in assay [1] and in assay [2] were 500 to 5000 nM and less than 500 nM, respectively.
In the case of `CCCC(c1nc2ccc(Br)cc2c(=O)n1CC)N1CCCN(Cc2ccccc2)CC1` (stereo not drawn) [Example 6, 2-(1-(4-benzyl-1,4-diazepan-1-yl)butyl)-6-bromo-3-ethylquinazolin-4(3H)-one], the results for the Ki in assay [1] and in assay [2] were greater than 5000 nM and less than 500 nM, respectively.
Consider `CCCC(c1nc2ccc(Br)cc2c(=O)n1CC)N1CCCN(CC)CC1` (stereo not drawn) [Example 7, 6-bromo-3-ethyl-2-(1-(4-ethyl-1,4-diazepan-1-yl)butyl)quinazolin-4(3H)-one], for which the Ki in assay [1] and in assay [2] was less than 500 nM each time.
On to `CCCC(c1nc2ccc(C)cc2c(=O)n1CC)N1CCCN(C)CC1` (stereo not drawn) [Example 8, 3-ethyl-6-methyl-2-(1-(4-methyl-1,4-diazepan-1-yl)butyl)quinazolin-4(3H)-one], for which the values for the Ki in assay [1] and in assay [2] were less than 500 nM and greater than 1000 nM, respectively.
`CCCC(c1nc2cc(C#N)ccc2c(=O)n1CC)N1CCCN(C)CC1` (stereo not drawn) [Example 9, 3-ethyl-2-(1-(4-methyl-1,4-diazepan-1-yl)butyl)-4-oxo-3,4-dihydroquinazoline-7-carbonitrile]: the Ki in assay [1] was less than 500 nM; in assay [2], greater than 1000 nM.
As for `CCCC(c1nc2ccc(C#N)cc2c(=O)n1CC)N1CCCN(C)CC1` (stereo not drawn) [Example 10, 3-ethyl-2-(1-(4-methyl-1,4-diazepan-1-yl)butyl)-4-oxo-3,4-dihydroquinazoline-6-carbonitrile], the inhibition constant Ki in assay [1] is less than 500 nM; in assay [2] it was greater than 1000 nM.
Taken in the same sequence, the figures for `CCCC(c1nc2cc(C)ccc2c(=O)n1CC)N1CCCN(C)CC1` (stereo not drawn) [Example 11, 3-ethyl-7-methyl-2-(1-(4-methyl-1,4-diazepan-1-yl)butyl)quinazolin-4(3H)-one] were less than 500 nM and greater than 1000 nM.
Taken in the same sequence, the figures for `CCCC(c1nc2ccc(I)cc2c(=O)n1CC)N1CCCN(C)CC1` (stereo not drawn) [Example 12, 3-ethyl-6-iodo-2-(1-(4-methyl-1,4-diazepan-1-yl)butyl)quinazolin-4(3H)-one] were less than 500 nM and less than 500 nM.
As for `CCCC(c1nc2cc(F)c(Br)cc2c(=O)n1CC)N1CCCN(C)CC1` (stereo not drawn) [Example 13, 6-bromo-3-ethyl-7-fluoro-2-(1-(4-methyl-1,4-diazepan-1-yl)butyl)quinazolin-4(3H)-one], the Ki in assay [1] and in assay [2] was less than 500 nM in each case.
For `CCCC(c1nc2ccc(Br)cc2c(=O)n1CCOC)N1CCCN(C)CC1` (stereo not drawn) [Example 14, 6-bromo-3-(2-methoxyethyl)-2-(1-(4-methyl-1,4-diazepan-1-yl)butyl)quinazolin-4(3H)-one], the Ki was 500 to 5000 nM in assay [1] and greater than 1000 nM in assay [2].
In the case of `CCC[C@H](c1nc2ccc(OC)cc2c(=O)n1CC)N1CCCN(C)CC1` [Example 15, (R)-3-ethyl-6-methoxy-2-(1-(4-methyl-1,4-diazepan-1-yl)butyl)quinazolin-4(3H)-one], the results for the Ki in assay [1] and in assay [2] were less than 500 nM and greater than 1000 nM, respectively.
Turning to `CCC[C@@H](c1nc2ccc(OC)cc2c(=O)n1CC)N1CCCN(C)CC1` [Example 16, (S)-3-ethyl-6-methoxy-2-(1-(4-methyl-1,4-diazepan-1-yl)butyl)quinazolin-4(3H)-one], the inhibitory constant (Ki) is greater than 5000 nM in assay [1] and greater than 1000 nM in assay [2].
For the compound `CCCC(c1nc2cnccc2c(=O)n1CC)N1CCCN(C)CC1` (stereo not drawn) [Example 17, 3-ethyl-2-(1-(4-methyl-1,4-diazepan-1-yl)butyl)pyrido[3,4-d]pyrimidin-4(3H)-one], the figures for the inhibition constant (Ki) in assay [1] and in assay [2] were less than 500 nM and greater than 1000 nM, respectively.
For `CCCC(c1nc2ccc(Br)cc2c(=O)n1CCC)N1CCCN(C)CC1` (stereo not drawn) [Example 18, 6-bromo-2-(1-(4-methyl-1,4-diazepan-1-yl)butyl)-3-propylquinazolin-4(3H)-one], the inhibition constant (Ki) in assay [1] and in assay [2] was less than 500 nM each time.
In the case of `CCCC(c1nc2ccc(Cl)cc2c(=O)n1CC)N1CCCN(C)CC1` (stereo not drawn) [Example 19, 6-chloro-3-ethyl-2-(1-(4-methyl-1,4-diazepan-1-yl)butyl)quinazolin-4(3H)-one], the Ki in assay [1] was less than 500 nM; in assay [2], 500 to 1000 nM.
In the case of `CCCC(c1nc2ccc(Br)cc2c(=O)n1CCC)N1CCCN(CC)CC1` (stereo not drawn) [Example 20, 6-bromo-2-(1-(4-ethyl-1,4-diazepan-1-yl)butyl)-3-propylquinazolin-4(3H)-one], the inhibition constant (Ki) in assay [1] and in assay [2] was less than 500 nM in each case.
Regarding `CCCC(c1nc2ccc(F)cc2c(=O)n1CC)N1CCCN(C)CC1` (stereo not drawn) [Example 21, 3-ethyl-6-fluoro-2-(1-(4-methyl-1,4-diazepan-1-yl)butyl)quinazolin-4(3H)-one], the Ki in assay [1] and in assay [2] was less than 500 nM each time.
Regarding `CCCC(c1nc2ccc(Cl)cc2c(=O)n1CC)N1CCCNCC1` (stereo not drawn) [Example 22, 2-(1-(1,4-diazepan-1-yl)butyl)-6-chloro-3-ethylquinazolin-4(3H)-one], the results for the Ki in assay [1] and in assay [2] were less than 500 nM and greater than 1000 nM, respectively.
In the case of `CCCC(c1nc2ccc(Cl)cc2c(=O)n1CCC)N1CCCN(C)CC1` (stereo not drawn) [Example 23, 6-chloro-2-(1-(4-methyl-1,4-diazepan-1-yl)butyl)-3-propylquinazolin-4(3H)-one], the values for the inhibitory constant (Ki) in assay [1] and in assay [2] were less than 500 nM and 500 to 1000 nM, respectively.
Regarding `CCCC(c1nc2ccc(Br)c(C)c2c(=O)n1CC)N1CCCN(C)CC1` (stereo not drawn) [Example 24, 6-bromo-3-ethyl-5-methyl-2-(1-(4-methyl-1,4-diazepan-1-yl)butyl)quinazolin-4(3H)-one], the inhibition constant Ki is 500 to 5000 nM in assay [1] and less than 500 nM in assay [2].
The like results for `CCCC(c1nc2c(C)cc(Br)cc2c(=O)n1CC)N1CCCN(C)CC1` (stereo not drawn) [Example 25, 6-bromo-3-ethyl-8-methyl-2-(1-(4-methyl-1,4-diazepan-1-yl)butyl)quinazolin-4(3H)-one] were, in that order, greater than 5000 nM and 500 to 1000 nM.
On to `CCCC(c1nc2cc(F)c(Br)cc2c(=O)n1CCC)N1CCCN(C)CC1` (stereo not drawn) [Example 26, 6-bromo-7-fluoro-2-(1-(4-methyl-1,4-diazepan-1-yl)butyl)-3-propylquinazolin-4(3H)-one], for which the Ki in assay [1] and in assay [2] was less than 500 nM throughout.
As for `CCCC(c1nc2cc(F)c(Br)cc2c(=O)n1CC)N1CCCNCC1` (stereo not drawn) [Example 27, 2-(1-(1,4-diazepan-1-yl)butyl)-6-bromo-3-ethyl-7-fluoroquinazolin-4(3H)-one], the inhibitory constant (Ki) in assay [1] is less than 500 nM; in assay [2], greater than 1000 nM.
Turning to `CCCC(c1nc2ccc(Br)cc2c(=O)n1CC)N1CCNCC(C)(C)C1` (stereo not drawn) [Example 28, 6-bromo-2-(1-(6,6-dimethyl-1,4-diazepan-1-yl)butyl)-3-ethylquinazolin-4(3H)-one], the inhibition constant (Ki) was 500 to 5000 nM in assay [1] and 500 to 1000 nM in assay [2].
With `CCCC(c1nc2cc(F)c(F)cc2c(=O)n1CC)N1CCCN(C)CC1` (stereo not drawn) [Example 29, 3-ethyl-6,7-difluoro-2-(1-(4-methyl-1,4-diazepan-1-yl)butyl)quinazolin-4(3H)-one], the Ki in assay [1] was less than 500 nM; in assay [2] it was 500 to 1000 nM.
Consider `CCCC(c1nc2ccc(Br)cc2c(=O)n1CC)N1CCN(C)CC(C)(C)C1` (stereo not drawn) [Example 30, 6-bromo-3-ethyl-2-(1-(4,6,6-trimethyl-1,4-diazepan-1-yl)butyl)quinazolin-4(3H)-one], for which the inhibition constant (Ki) is greater than 5000 nM in assay [1] and greater than 1000 nM in assay [2].
As to `CCCC(c1nc2ccc(Br)c(F)c2c(=O)n1CC)N1CCCN(C)CC1` (stereo not drawn) [Example 51, 6-bromo-3-ethyl-5-fluoro-2-(1-(4-methyl-1,4-diazepan-1-yl)butyl)quinazolin-4(3H)-one], the inhibition constant (Ki) in assay [2] was less than 500 nM.

The record behind these values is patent US12479830B2, “Homopiperazinyl and homopiperidinyl quinazolin-4(3H)-one derivatives having multimodal activity against pain” (ESTEVE PHARMACEUTICALS, S.A., priority 2019, dated 2025).
